Measured values reported in patent US20240366611A1, “METHODS OF TREATING A DISEASE OR DISORDER” (Ascentage Pharma (Suzhou) Co., Ltd., priority 2021, published 2024).

Tested on: Hbb-bh1 mRNA
Test: Hbb-bh1 mRNA level in whole blood (qPCR, relative to GAPDH)
Type: in vivo, CD-1 mice
Procedure: Female CD-1 mice (8 weeks old) were housed and handled in a temperature-controlled environment with a 12-h light/12-h dark cycle. A total of 25 mice were assigned to 5 groups by randomization based on body weight, followed by 5 days of treatment with vehicle (po, qd), 3 mg/kg Cpd. 73 (po, qd), 10 mg/kg Cpd. 73 (po, qd), 30 mg/kg Cpd. 73 (po, qd), or 90 mg/kg Cpd. 73 (po, qd). The protocols and procedures involving the care and use of animals were approved by the Institutional Animal Care and Use Committee (IACUC) of WuXiAppTec (Shanghai) Co., Ltd. (Shanghai, China).
Mouse Hbb-bh1 gene, the homolog to human HBG1 gene encoding γ hemoglobin, is used as an efficacy biomarker in wide-type CD-1 mice. One hundred and twenty μL whole blood was collected for RNA isolation following the instructions of Trizol LS reagent (Invitrogen, 10296028). The relative expression of Hbb-bh1 mRNA to GAPDH mRNA were quantified by qPCR. The relative expression of Hbb-bh1 mRNA in the whole blood of CD-1 mice increased with increasing dose of Cpd. 73 from 3 mg/kg (qd×5 days) to 90 mg/kg (qd×5 days). The Hbb-bh1 mRNA levels were 82.2%, 114.6% and 178.3% of the vehicle control group when Cpd. […] 73 (p<0.05, vs. vehicle). The increased expression of Hbb-bh1 mRNA may result in increased expression of mouse βh1 hemoglobin.

CC(C)N1Cc2cc(C(F)(F)F)ncc2-c2cnc(NCc3c(F)ccc4c3CCO4)n3cnc(c23)C1=O [Cpd. 73, 12-(((5-fluoro-2,3-dihydrobenzofuran-4-yl)methyl)amino)-4-isopropyl-7-(trifluoromethyl)-4,5-dihydro-3H-2,4,8,11,12a-pentaazabenzo[4,5]cycloocta[1,2,3-cd]inden-3-one]
Hbb-bh1 mRNA level, of the vehicle control group (3 mg/kg po qd×5 days): 82.2%
Hbb-bh1 mRNA level, of the vehicle control group (10 mg/kg po qd×5 days): 114.6%
Hbb-bh1 mRNA level, of the vehicle control group (30 mg/kg po qd×5 days): 178.3%
Hbb-bh1 mRNA, fold of increase (90 mg/kg po qd×5 days, p<0.05 vs vehicle): 3.04 fold
